Reference: the kinase profiling compilation of Christmann-Franck et al. (2016)

Assays:
Experiment in all cases: KINOMEscan competition binding
Conditions in all cases: compound 10.0 µM
CDK9 (human) = CDK9 (human) (UniProt P50750)
PAK3 (human) = PAK3 (human) (UniProt O75914)
MAP4K5 (human) = MAP4K5 (human) (UniProt Q9Y4K4)
NUAK2 (human) = NUAK2 (human) (UniProt Q9H093)
MYO3A (human) = MYO3A (human) (UniProt Q8NEV4)
CDK5 (human) = CDK5 (human) (UniProt Q00535)
[1] = target: JAK1 JH1 catalytic (human) (UniProt P23458)
STK25 (human) = STK25 (human) (UniProt O00506)
BRSK2 (human) = BRSK2 (human) (UniProt Q8IWQ3)
TNIK (human) = TNIK (human) (UniProt Q9UKE5)
LYN (human) = LYN (human) (UniProt P07948)
IKBKE (human) = IKBKE (human) (UniProt Q14164)
LCK (human) = LCK (human) (UniProt P06239)
CLK2 (human) = CLK2 (human) (UniProt P49760)
MARK2 (human) = MARK2 (human) (UniProt Q7KZI7)
MARK2 (human), sequence (Q7KZI7 whole entry, looked up): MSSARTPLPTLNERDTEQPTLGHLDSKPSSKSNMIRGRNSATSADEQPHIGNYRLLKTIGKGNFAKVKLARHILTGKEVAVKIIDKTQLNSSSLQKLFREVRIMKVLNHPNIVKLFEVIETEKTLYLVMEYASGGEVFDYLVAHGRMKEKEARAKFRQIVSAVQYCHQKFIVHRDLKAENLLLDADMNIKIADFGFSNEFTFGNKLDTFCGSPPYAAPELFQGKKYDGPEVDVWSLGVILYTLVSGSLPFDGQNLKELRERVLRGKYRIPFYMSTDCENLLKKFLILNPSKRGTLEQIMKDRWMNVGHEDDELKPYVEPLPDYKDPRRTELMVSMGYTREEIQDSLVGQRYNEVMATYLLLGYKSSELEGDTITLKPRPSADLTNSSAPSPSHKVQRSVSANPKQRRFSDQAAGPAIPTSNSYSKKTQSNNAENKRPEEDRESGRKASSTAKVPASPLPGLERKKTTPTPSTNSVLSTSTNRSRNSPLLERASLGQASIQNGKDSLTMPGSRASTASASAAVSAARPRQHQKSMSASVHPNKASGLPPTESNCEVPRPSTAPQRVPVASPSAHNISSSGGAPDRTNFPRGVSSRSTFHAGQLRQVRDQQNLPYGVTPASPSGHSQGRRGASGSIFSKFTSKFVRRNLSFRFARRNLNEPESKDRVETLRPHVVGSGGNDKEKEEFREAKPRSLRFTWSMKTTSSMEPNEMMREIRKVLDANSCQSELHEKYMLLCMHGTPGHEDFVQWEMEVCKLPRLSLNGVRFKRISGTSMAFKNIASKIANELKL

EPHA2 (human) = EPHA2 (human) (UniProt P29317)
EPHA2 (human), sequence (P29317 whole entry, looked up): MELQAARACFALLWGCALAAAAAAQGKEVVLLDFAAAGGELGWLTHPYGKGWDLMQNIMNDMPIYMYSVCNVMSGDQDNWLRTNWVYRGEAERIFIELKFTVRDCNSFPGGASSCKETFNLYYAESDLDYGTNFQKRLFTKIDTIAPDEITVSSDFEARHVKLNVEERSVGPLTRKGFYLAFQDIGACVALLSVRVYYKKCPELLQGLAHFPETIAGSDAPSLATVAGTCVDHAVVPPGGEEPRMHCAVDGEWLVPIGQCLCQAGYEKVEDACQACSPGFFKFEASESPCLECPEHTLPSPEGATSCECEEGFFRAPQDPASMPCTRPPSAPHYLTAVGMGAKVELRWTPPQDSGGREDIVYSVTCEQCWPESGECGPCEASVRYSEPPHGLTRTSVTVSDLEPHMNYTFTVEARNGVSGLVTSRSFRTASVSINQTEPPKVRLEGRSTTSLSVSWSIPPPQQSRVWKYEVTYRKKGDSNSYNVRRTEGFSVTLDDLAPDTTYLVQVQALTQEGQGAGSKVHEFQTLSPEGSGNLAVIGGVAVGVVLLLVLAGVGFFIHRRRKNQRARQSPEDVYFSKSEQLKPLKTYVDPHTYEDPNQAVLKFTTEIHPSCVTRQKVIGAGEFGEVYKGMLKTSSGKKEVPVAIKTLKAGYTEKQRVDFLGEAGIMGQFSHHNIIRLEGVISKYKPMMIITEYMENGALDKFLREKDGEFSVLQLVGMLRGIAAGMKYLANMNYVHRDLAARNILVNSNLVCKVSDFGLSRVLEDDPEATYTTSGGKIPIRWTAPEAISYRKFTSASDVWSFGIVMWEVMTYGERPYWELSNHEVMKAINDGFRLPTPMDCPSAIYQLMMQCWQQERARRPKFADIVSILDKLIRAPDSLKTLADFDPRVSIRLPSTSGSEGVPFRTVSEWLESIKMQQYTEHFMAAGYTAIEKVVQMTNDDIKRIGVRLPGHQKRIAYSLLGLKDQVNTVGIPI

EPHA8 (human) = EPHA8 (human) (UniProt P29322)
TNNI3K (human) = TNNI3K (human) (UniProt Q59H18)
CDK14 (human) = CDK14 (human) (UniProt O94921)
PDPK1 (human) = PDPK1 (human) (UniProt O15530)
MAP2K2 (human) = MAP2K2 (human) (UniProt P36507)
MAPKAPK5 (human) = MAPKAPK5 (human) (UniProt Q8IW41)
MAPKAPK5 (human), sequence (Q8IW41 whole entry, looked up): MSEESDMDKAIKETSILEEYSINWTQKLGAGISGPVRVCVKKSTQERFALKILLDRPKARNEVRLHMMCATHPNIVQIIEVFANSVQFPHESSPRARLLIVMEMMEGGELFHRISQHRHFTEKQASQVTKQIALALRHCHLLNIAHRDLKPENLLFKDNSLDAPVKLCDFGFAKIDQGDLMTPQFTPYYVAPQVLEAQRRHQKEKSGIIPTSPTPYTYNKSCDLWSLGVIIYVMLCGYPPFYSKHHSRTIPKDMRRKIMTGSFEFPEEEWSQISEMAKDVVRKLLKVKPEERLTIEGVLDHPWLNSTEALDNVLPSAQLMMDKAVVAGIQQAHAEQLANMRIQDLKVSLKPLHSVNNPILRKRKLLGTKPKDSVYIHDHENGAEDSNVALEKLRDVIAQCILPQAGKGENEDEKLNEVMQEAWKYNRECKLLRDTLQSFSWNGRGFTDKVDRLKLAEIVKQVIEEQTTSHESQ

SRMS (human) = SRMS (human) (UniProt Q9H3Y6)
SRMS (human), sequence (Q9H3Y6 whole entry, looked up): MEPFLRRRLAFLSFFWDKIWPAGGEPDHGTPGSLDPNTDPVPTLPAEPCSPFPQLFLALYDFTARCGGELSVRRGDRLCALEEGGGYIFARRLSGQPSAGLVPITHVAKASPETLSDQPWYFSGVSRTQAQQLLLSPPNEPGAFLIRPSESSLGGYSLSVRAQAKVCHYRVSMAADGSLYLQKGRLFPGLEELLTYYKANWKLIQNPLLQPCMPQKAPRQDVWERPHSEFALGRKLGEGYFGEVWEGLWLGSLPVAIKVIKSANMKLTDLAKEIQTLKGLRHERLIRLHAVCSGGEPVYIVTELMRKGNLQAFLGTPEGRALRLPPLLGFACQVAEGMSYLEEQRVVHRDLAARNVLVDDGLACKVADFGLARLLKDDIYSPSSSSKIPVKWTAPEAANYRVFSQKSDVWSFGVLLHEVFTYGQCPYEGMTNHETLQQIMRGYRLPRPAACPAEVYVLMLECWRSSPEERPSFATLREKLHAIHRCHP

SLK (human) = SLK (human) (UniProt Q9H2G2)
PRKD1 (human) = PRKD1 (human) (UniProt Q15139)
AXL (human) = AXL (human) (UniProt P30530)
MAPK3 (human) = MAPK3 (human) (UniProt P27361)
MAP3K3 (human) = MAP3K3 (human) (UniProt Q99759)
RIPK1 (human) = RIPK1 (human) (UniProt Q13546)
PDGFRB (human) = PDGFRB (human) (UniProt P09619)
RPS6KA2 KD2 (human) = RPS6KA2 KD2 (human) (UniProt Q15349)
IKBKB (human) = IKBKB (human) (UniProt O14920)
RIPK2 (human) = RIPK2 (human) (UniProt O43353)
PLK4 (human) = PLK4 (human) (UniProt O00444)
CSNK1E (human) = CSNK1E (human) (UniProt P49674)
MAPK12 (human) = MAPK12 (human) (UniProt P53778)
NEK5 (human) = NEK5 (human) (UniProt Q6P3R8)
RPS6KA1 KD2 (human) = RPS6KA1 KD2 (human) (UniProt Q15418)
PIM2 (human) = PIM2 (human) (UniProt Q9P1W9)
TEK (human) = TEK (human) (UniProt Q02763)

MAP4K5 (human), sequence (Q9Y4K4 whole entry, looked up): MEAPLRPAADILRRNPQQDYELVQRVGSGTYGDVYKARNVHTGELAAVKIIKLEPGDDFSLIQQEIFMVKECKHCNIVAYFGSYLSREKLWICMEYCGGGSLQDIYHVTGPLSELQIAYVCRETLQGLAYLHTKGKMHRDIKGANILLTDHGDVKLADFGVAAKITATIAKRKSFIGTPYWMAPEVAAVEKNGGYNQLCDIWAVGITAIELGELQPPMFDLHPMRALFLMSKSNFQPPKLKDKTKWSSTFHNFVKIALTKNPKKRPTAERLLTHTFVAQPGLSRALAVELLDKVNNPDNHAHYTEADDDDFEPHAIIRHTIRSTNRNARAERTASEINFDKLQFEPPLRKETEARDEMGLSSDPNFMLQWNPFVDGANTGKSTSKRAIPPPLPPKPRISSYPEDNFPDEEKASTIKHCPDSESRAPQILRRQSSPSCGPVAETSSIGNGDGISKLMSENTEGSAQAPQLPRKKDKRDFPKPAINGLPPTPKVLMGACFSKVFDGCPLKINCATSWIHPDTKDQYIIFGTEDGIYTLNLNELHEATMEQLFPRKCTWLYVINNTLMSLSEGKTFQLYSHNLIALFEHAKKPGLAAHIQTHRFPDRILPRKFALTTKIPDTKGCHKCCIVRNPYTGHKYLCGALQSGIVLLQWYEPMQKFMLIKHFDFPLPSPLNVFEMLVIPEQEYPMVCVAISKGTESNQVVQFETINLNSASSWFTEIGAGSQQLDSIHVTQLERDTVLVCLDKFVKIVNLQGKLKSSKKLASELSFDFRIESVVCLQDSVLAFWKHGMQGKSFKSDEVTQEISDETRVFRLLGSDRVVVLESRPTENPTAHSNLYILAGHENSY
CDK9 (human), sequence (P50750 whole entry, looked up): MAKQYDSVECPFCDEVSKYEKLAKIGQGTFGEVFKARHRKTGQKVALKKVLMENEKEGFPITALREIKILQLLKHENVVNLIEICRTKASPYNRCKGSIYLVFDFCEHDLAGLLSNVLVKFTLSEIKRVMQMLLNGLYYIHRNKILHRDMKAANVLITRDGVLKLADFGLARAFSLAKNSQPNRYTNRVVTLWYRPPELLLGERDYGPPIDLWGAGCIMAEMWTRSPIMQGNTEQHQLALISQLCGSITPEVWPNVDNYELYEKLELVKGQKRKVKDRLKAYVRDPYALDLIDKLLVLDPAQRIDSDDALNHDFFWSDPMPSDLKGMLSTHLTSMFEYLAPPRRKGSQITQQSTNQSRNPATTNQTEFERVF
CDK5 (human), sequence (Q00535 whole entry, looked up): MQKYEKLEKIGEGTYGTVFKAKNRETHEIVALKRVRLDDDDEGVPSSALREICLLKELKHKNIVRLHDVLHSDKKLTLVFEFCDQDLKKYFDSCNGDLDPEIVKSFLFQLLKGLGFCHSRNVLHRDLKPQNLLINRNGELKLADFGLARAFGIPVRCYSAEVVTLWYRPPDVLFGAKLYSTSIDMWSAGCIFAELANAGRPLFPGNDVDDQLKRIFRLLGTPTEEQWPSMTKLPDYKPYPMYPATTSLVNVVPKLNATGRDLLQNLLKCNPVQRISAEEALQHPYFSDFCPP
NUAK2 (human), sequence (Q9H093 whole entry, looked up): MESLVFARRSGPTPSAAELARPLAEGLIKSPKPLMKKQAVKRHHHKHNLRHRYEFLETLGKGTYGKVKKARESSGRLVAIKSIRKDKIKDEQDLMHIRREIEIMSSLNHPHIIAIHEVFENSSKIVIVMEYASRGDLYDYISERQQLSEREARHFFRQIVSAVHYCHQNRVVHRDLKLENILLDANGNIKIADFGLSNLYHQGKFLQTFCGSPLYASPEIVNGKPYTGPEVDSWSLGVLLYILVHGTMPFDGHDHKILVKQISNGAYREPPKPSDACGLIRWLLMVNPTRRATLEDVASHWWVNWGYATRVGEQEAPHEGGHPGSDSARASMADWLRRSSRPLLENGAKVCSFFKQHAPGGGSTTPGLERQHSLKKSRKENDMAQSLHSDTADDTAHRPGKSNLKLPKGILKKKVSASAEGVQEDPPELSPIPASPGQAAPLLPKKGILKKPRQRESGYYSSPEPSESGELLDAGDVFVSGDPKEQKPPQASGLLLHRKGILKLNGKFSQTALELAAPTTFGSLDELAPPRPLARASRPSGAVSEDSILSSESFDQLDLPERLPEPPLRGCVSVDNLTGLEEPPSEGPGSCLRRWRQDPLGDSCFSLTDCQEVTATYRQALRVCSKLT

Compound	kinase still bound, per cent of control (CDK9 (human)) [%]	kinase still bound, per cent of control (PAK3 (human)) [%]	kinase still bound, per cent of control (MAP4K5 (human)) [%]	kinase still bound, per cent of control (NUAK2 (human)) [%]	kinase still bound, per cent of control (MYO3A (human)) [%]	kinase still bound, per cent of control (CDK5 (human)) [%]	kinase still bound, per cent of control [1] [%]	kinase still bound, per cent of control (STK25 (human)) [%]	kinase still bound, per cent of control (BRSK2 (human)) [%]	kinase still bound, per cent of control (TNIK (human)) [%]	kinase still bound, per cent of control (LYN (human)) [%]	kinase still bound, per cent of control (IKBKE (human)) [%]	kinase still bound, per cent of control (LCK (human)) [%]	kinase still bound, per cent of control (CLK2 (human)) [%]	kinase still bound, per cent of control (MARK2 (human)) [%]	kinase still bound, per cent of control (EPHA2 (human)) [%]	kinase still bound, per cent of control (EPHA8 (human)) [%]	kinase still bound, per cent of control (TNNI3K (human)) [%]	kinase still bound, per cent of control (CDK14 (human)) [%]	kinase still bound, per cent of control (PDPK1 (human)) [%]	other results
N#Cc1c(NC(=O)c2cccc3ccccc23)sc2c1CCCC2	83	94	65	95	42	100	78	93	100	100	78	100	85	87	100	100	79	52	98	81	kinase still bound, per cent of control (MAP2K2 (human)): 100%; kinase still bound, per cent of control (MAPKAPK5 (human)): 100%; kinase still bound, per cent of control (SRMS (human)): 84%; kinase still bound, per cent of control (SLK (human)): 82%; kinase still bound, per cent of control (PRKD1 (human)): 100%; kinase still bound, per cent of control (AXL (human)): 88%; kinase still bound, per cent of control (MAPK3 (human)): 74%; kinase still bound, per cent of control (MAP3K3 (human)): 96%; kinase still bound, per cent of control (RIPK1 (human)): 87%; kinase still bound, per cent of control (PDGFRB (human)): 44%; kinase still bound, per cent of control (RPS6KA2 KD2 (human)): 79%; kinase still bound, per cent of control (IKBKB (human)): 72%; kinase still bound, per cent of control (RIPK2 (human)): 58%; kinase still bound, per cent of control (PLK4 (human)): 82%; kinase still bound, per cent of control (CSNK1E (human)): 70%; kinase still bound, per cent of control (MAPK12 (human)): 82%; kinase still bound, per cent of control (NEK5 (human)): 79%; kinase still bound, per cent of control (RPS6KA1 KD2 (human)): 78%; kinase still bound, per cent of control (PIM2 (human)): 69%
Cn1c(=O)n(-c2ccc(C(C)(C)C#N)cc2)c2c3cc(-c4cnc5ccccc5c4)ccc3ncc21	100	100	100	100	100	100	16	100	100	100	100	100	100	100	100	100	100	100	100	100	kinase still bound, per cent of control (TEK (human)): 100%; kinase still bound, per cent of control (MAP2K2 (human)): 100%; kinase still bound, per cent of control (MAPKAPK5 (human)): 100%; kinase still bound, per cent of control (SRMS (human)): 100%; kinase still bound, per cent of control (SLK (human)): 100%; kinase still bound, per cent of control (PRKD1 (human)): 100%; kinase still bound, per cent of control (AXL (human)): 100%; kinase still bound, per cent of control (MAPK3 (human)): 100%; kinase still bound, per cent of control (MAP3K3 (human)): 100%; kinase still bound, per cent of control (RIPK1 (human)): 100%; kinase still bound, per cent of control (RPS6KA2 KD2 (human)): 100%; kinase still bound, per cent of control (IKBKB (human)): 100%; kinase still bound, per cent of control (RIPK2 (human)): 100%; kinase still bound, per cent of control (PLK4 (human)): 100%; kinase still bound, per cent of control (CSNK1E (human)): 100%; kinase still bound, per cent of control (MAPK12 (human)): 100%; kinase still bound, per cent of control (NEK5 (human)): 100%; kinase still bound, per cent of control (RPS6KA1 KD2 (human)): 100%; kinase still bound, per cent of control (PIM2 (human)): 100%
